From US11098055B2, “Ester ACC inhibitors and uses thereof” (Gilead Apollo, LLC, priority 2015, dated 2021)
≈ marks a conversion by molar mass, not a printed value. Read-outs that look alike come from different tables or passages of the source.

Tests used:
Assay in all cases: Growth inhibition assay of fungal pathogens
Assay type in all cases: cell-based
Botrtyis cinerea (Bc) = settings: 48 h, read-out: Concentration at 90% Inhibition Bc
Experimental: (§1) Compounds of the present invention were evaluated in a growth inhibition assay to determine the ability to control the growth of fungal pathogens, such as Botrtyis cinerea (Bc), Collectotrichum graminicola (Cg), Diplodia maydis (Dm), Fusarium moniliforme (Fm), Fusarium virguhforme (Fv), Phytophthora capsici (Pc), Rhizoctonia solani (Rs), and Septoria tritici (St). Compounds to be tested were dissolved in DMSO at 2.5 mg/ml to produce compound stock solutions (“stocks”). Stocks were diluted with DMSO by a five-fold dilution in a 96-well stock plate, and two sets of final concentrations of 50, 10, and 2 ppm or 2, 0.4, and 0.08 ppm were obtained in vitro. A set of positive controls was also prepared, with various concentrations of Soraphen (2, 0.4, and 0.08 ppm), Metalaxyl (1.1, 0.22, and 0.04 ppm), and Metconazole (2, 0.4, and 0.08 ppm or 0.2, 0.04, and 0.008 ppm) after the five-fold dilutions. Negative controls on each plate included 2% DMSO, water, and a blank (media+2% DMSO). Fungal spores were isolated from previously sub-cultured plates of Botrtyis cinerea (Bc), Collectotrichum graminicola (Cg), Diplodia maydis (Dm), Fusarium moniliforme (Fm), Fusarium virguliforme (Fv), Phytophthora capsici (Pc), and Septoria tritici (St). The isolated spores were diluted to individual concentrations with a 17% V8 liquid media. For Rhizoctonia solani (Rs) and Pythium irregulare, 1.5 mm mycelial plugs were used in place of spores and ¼ Potato Dextrose Broth (PDB) was used for dilution. The spore concentrations and plug sizes were based on growth curves generated at 48 hours for each pathogen. In a second 96-well plate, the spores or mycelial plugs, media, diluted compound solutions, and controls were combined. Once the compound was added, a true final concentration of compound in each well was measured by an OD600 reading, which adjusted for any compound precipitation that might have occurred in the well. Plate readings were repeated at both 24 and 48 hours. The blank negative control was used as a background subtraction. Additional visual ratings were performed at both 24 and 48 hours for checking on precipitation and confirming efficacy. Visual and OD600 ratings of the compounds at 48 hours were compared to the 2% DMSO negative control, and the percent of pathogen growth inhibition was determined based on those values.

[1] = system: Collectotrichum graminicola (Cg); settings: 48 h, read-out: Concentration at 90% Inhibition Cg
Experimental: as §1

Diplodia maydis (Dm) = settings: Stenocarpella maydis, 48 h, read-out: Concentration at 90% Inhibition Dm
Experimental: as §1

[2] = system: Fusarium moniliforme (Fm); settings: Fusarium verticillioides, 48 h, read-out: Concentration at 90% Inhibition Fm
Experimental: as §1

[3] = system: Fusarium virguliforme (Fv); settings: 48 h, read-out: Concentration at 90% Inhibition Fv
Experimental: as §1

[4] = system: Phytophthora capsici (Pc); settings: 48 h, read-out: Concentration at 90% Inhibition Pc
Experimental: as §1

Rhizoctonia solani (Rs) = settings: 48 h, read-out: Concentration at 90% Inhibition Rs
Experimental: as §1

Septoria tritici (St) = settings: Zymoseptoria tritici, 48 h, read-out: Concentration at 90% Inhibition St
Experimental: as §1

For CCOC(=O)c1sc2c(c1C)c(=O)n([C@H](C)C(=O)NC(C)C)c(=O)n2C[C@H](O)c1cc(F)ccc1OC [Compound I-43, ethyl 1-((R)-2-(5-fluoro-2-methoxyphenyl)-2-hydroxyethyl)-3-((R)-1-(isopropylamino)-1-oxopropan-2-yl)-5-methyl-2,4-dioxo-1,2,3,4-tetrahydrothieno[2,3-d]pyrimidine-6-carboxylate], the IC90 (Botrtyis cinerea (Bc); Table 4b) was 2 µg/mL (≈ 3.73 µM), the IC90 ([1]; Table 4b) was 10 µg/mL (≈ 18.7 µM) and the IC90 (Diplodia maydis (Dm); Table 4b) was 10 µg/mL (≈ 18.7 µM). For the same compound, the IC90 ([2]; Table 4b) was 0.08 µg/mL (≈ 0.149 µM), the IC90 ([3]; Table 4b) was 0.4 µg/mL (≈ 0.747 µM) and the IC90 ([4]; Table 4b) was at least 50 µg/mL. The IC90 (Rhizoctonia solani (Rs); Table 4b) was 2 µg/mL (≈ 3.73 µM) and the IC90 (Septoria tritici (St); Table 4b) was at least 50 µg/mL.

With CCOC(=O)c1sc2c(c1C)c(=O)n(C(C)(C)C(=O)N1CCOCC1)c(=O)n2C[C@H](OC(C)C)c1ccccc1OC [Compound I-5, (R)-ethyl 1-(2-isopropoxy-2-(2-methoxyphenyl)ethyl)-5-methyl-3-(2-methyl-1-morpholino-1-oxopropan-2-yl)-2,4-dioxo-1,2,3,4-tetrahydrothieno[2,3-d]pyrimidine-6-carboxylate] the IC90 (Botrtyis cinerea (Bc); Table 4a) was 0.4 µg/mL (≈ 0.665 µM), the IC90 (Botrtyis cinerea (Bc); Table 4b) was 0.4 µg/mL (≈ 0.665 µM) and the IC90 ([1]; Table 4a) was at least 50 µg/mL. The IC90 ([1]; Table 4b) was 10 µg/mL (≈ 16.6 µM), the IC90 (Diplodia maydis (Dm); Table 4a) was 2 µg/mL (≈ 3.32 µM) and the IC90 (Diplodia maydis (Dm); Table 4b) was 2 µg/mL (≈ 3.32 µM). It also gave an IC90 ([2]; Table 4a) of 0.4 µg/mL (≈ 0.665 µM), an IC90 ([2]; Table 4b) of 0.4 µg/mL (≈ 0.665 µM) and an IC90 ([3]; Table 4a) of at least 50 µg/mL. For the same compound, the IC90 ([3]; Table 4b) was 10 µg/mL (≈ 16.6 µM), the IC90 ([4]; Table 4a) was at least 50 µg/mL and the IC90 ([4]; Table 4b) was at least 50 µg/mL. The IC90 (Rhizoctonia solani (Rs); Table 4a) was at least 50 µg/mL, the IC90 (Rhizoctonia solani (Rs); Table 4b) was at least 50 µg/mL and the IC90 (Septoria tritici (St); Table 4a) was at least 50 µg/mL. It also gave an IC90 (Septoria tritici (St); Table 4b) of at least 50 µg/mL.

Compound CCOC(=O)c1sc2c(c1C)c(=O)n([C@H](C)C(=O)NC(C)C)c(=O)n2C[C@H](OCCC#N)c1cc(F)ccc1OC [Compound I-21, ethyl 1-((R)-2-(2-cyanoethoxy)-2-(5-fluoro-2-methoxyphenyl)ethyl)-3-((R)-1-(isopropylamino)-1-oxopropan-2-yl)-5-methyl-2,4-dioxo-1,2,3,4-tetrahydrothieno[2,3-d]pyrimidine-6-carboxylate] has an IC90 (Botrtyis cinerea (Bc); Table 4b) of 0.4 µg/mL (≈ 0.68 µM), an IC90 ([1]; Table 4b) of 0.4 µg/mL (≈ 0.68 µM) and an IC90 (Diplodia maydis (Dm); Table 4b) of 0.4 µg/mL (≈ 0.68 µM). For the same compound, the IC90 ([2]; Table 4b) was 0.08 µg/mL (≈ 0.136 µM), the IC90 ([3]; Table 4b) was 0.4 µg/mL (≈ 0.68 µM) and the IC90 ([4]; Table 4b) was 10 µg/mL (≈ 17 µM). The IC90 (Rhizoctonia solani (Rs); Table 4b) was 0.08 µg/mL (≈ 0.136 µM) and the IC90 (Septoria tritici (St); Table 4b) was at least 50 µg/mL.

CCOC(=O)c1sc2c(c1C)c(=O)n(C(C)(C)C(=O)NC(C)C)c(=O)n2C[C@H](OC[C@@H](C)C#N)c1cc(F)ccc1OC [Compound I-35, ethyl 1-((R)-2-((S)-2-cyanopropoxy)-2-(5-fluoro-2-methoxyphenyl)ethyl)-3-(1-(isopropylamino)-2-methyl-1-oxopropan-2-yl)-5-methyl-2,4-dioxo-1,2,3,4-tetrahydrothieno[2,3-d]pyrimidine-6-carboxylate] gave an IC90 (Botrtyis cinerea (Bc); Table 4b) of 0.4 µg/mL (≈ 0.649 µM), an IC90 ([1]; Table 4b) of 0.08 µg/mL (≈ 0.13 µM) and an IC90 (Diplodia maydis (Dm); Table 4b) of 0.4 µg/mL (≈ 0.649 µM). It also gave an IC90 ([2]; Table 4b) of 0.08 µg/mL (≈ 0.13 µM), an IC90 ([3]; Table 4b) of 0.4 µg/mL (≈ 0.649 µM) and an IC90 ([4]; Table 4b) of at least 50 µg/mL. It also gave an IC90 (Rhizoctonia solani (Rs); Table 4b) of 0.08 µg/mL (≈ 0.13 µM) and an IC90 (Septoria tritici (St); Table 4b) of 10 µg/mL (≈ 16.2 µM).

Work on CCNC(=O)[C@H](C)n1c(=O)c2c(C)c(C(=O)OCC)sc2n(C[C@H](OCCC#N)c2cc(F)ccc2OC)c1=O [Compound I-42, ethyl 1-((R)-2-(2-cyanoethoxy)-2-(5-fluoro-2-methoxyphenyl)ethyl)-3-((S)-1-(ethylamino)-1-oxopropan-2-yl)-5-methyl-2,4-dioxo-1,2,3,4-tetrahydrothieno[2,3-d]pyrimidine-6-carboxylate] yielded an IC90 (Botrtyis cinerea (Bc); Table 4b) of 0.4 µg/mL (≈ 0.696 µM), an IC90 ([1]; Table 4b) of 2 µg/mL (≈ 3.48 µM) and an IC90 (Diplodia maydis (Dm); Table 4b) of 2 µg/mL (≈ 3.48 µM). The IC90 ([2]; Table 4b) was 0.08 µg/mL (≈ 0.139 µM), the IC90 ([3]; Table 4b) was 0.4 µg/mL (≈ 0.696 µM) and the IC90 ([4]; Table 4b) was at least 50 µg/mL. The IC90 (Rhizoctonia solani (Rs); Table 4b) was 2 µg/mL (≈ 3.48 µM) and the IC90 (Septoria tritici (St); Table 4b) was at least 50 µg/mL.
